Test results taken from patent US20100137266A1, “TREATMENT OF INSULIN RESISTANCE AND DISORDERS ASSOCIATED THEREWITH” (UNIVERSITETET I OSLO, priority 2006, published 2010).

Tests used:
[1] = test system: GLUT1, GLUT3, GLUT4; test: mRNA levels of glucose transporters in myotubes by Real-Time RT-PCR; type: cell-based, human; details: for GLUT4 mRNA level, increase: 1 μmol/l T0901317 or 10 μmol/l 22-R-HC for 4 days
Text: FIG. 7. Glucose transport is increased in human myotubes after chronic 22-S-HC treatment. Human myoblasts were allowed to differentiate for 2 days, and then exposed to 1 μmol/1 T0901317, 10 μmol/[…]) or 1, 2, 5 and 10 μmol/1 22-S-HC(S-HC) for 4 days. […] (A) Present means for glucose uptake±SEM (n=4). Basal level for control are 1.20±0.24 nmol/mg cell protein. (B) A representative dose-response curve for glucose uptake after 1, 2, 5 and 10 μmol/l 22-S-HC treatment (n=3). (C) Total RNA were reversely transcribed and analyzed by Real-Time RT-PCR. Results are normalized to levels of 36B4 and present means±SEM (n=4-6). Relative expressions of GLUT1, GLUT3, GLUT4, and hexokinase (HK)II, ^ap<0.05 vs control, ^dp<0.05 vs T0901317. RNA isolation and analysis of gene expression by RT-PCR. Myotubes were washed, trypsinized and pelleted before total RNA was isolated by RNeasy Mini kit (Qiagen Sciences, Oslo, Norway) or Agilent Total RNA Mini kit (Matrix, Oslo, Norway) according to the suppliers total RNA isolation protocol. RNA samples were incubated with RNase-free DNase (Qiagen Sciences) for minimum 15 min in an additional step during the RNA isolation procedure. Total RNA (1 μg/μl) was reversely transcribed with […] primers using a Perkin-Elmer Thermal Cycler 9600 (25° C. for 10 min, 37° C. for 1 h, 99° C. for 5 min) and a TaqMan reverse-transcription reagents kit (Applied Biosystems). Real time PCR was performed using an ABI PRISM® 7000 Detection System. DNA expression was determined by SYBR® Green (Applied Biosystems), and primers [36B4 (Acc#M17885), ACSL1 (Acc#NM-001995), ABCA1 (Acc#AF165281), CD36 (Acc#L06850), FAS (Acc#U26644), GAPDH (Acc#J104038/M33197, GLUT4 (Acc#M20747), LXRα (Acc#U22662), LXR (Acc#U07132), Myogenin (Acc#X17651), MyoD (Acc#BC064493), PPARα (Acc#L02932), PPARδ (Acc#BC002715), PPARγ (Acc#L40904), SCD-1 (Acc#AB032261), SREBP1c (Acc#U00968)], GLUT1, (Acc#03195), GLUT3 ([…]) were designed using Primer Express® (Applied Biosystems). Each target gene was quantified in triplicates and carried out in a 25 μl reaction volume according to the suppliers protocol. […]

[2] = test system: human myotubes; test: Palmitate uptake and lipid distribution: TAG synthesis from [1-14C]palmitic acid in myotubes; type: cell-based
Experimental: FIG. 3. 22-hydroxycholesterols influence TAG synthesis from palmitic acid differently than T0901317. Human myoblasts were allowed to differentiate for 2 days, and then exposed to vehicle (0.1% DMSO), 1 μM T0901317, or 10 μM 22-S-hydroxycholesterol (22-S-HC) for 4 days. Differentiated myotubes were then incubated with [1-^14C]PA (0.5 μCi/ml, 0.1 mM) for 4 h before triacylglycerol (TAG) levels were determined. Results present means±SEM (n=4; independent muscle cell donors). *p<0.05 vs control, **p<0.05 vs all other treatments.
Human skeletal muscle cell cultures. A cell bank of satellite cells was established from muscle biopsy samples of the M. vastus lateralis of 6 healthy volunteers, age 25.7 years (±1.4), with BMI 21.6 (±1.0) and fasting glucose and insulin within normal range. The biopsies were obtained with informed consent and by approval of the National Committee for Research Ethics, Oslo, Norway. Muscle cell cultures free of fibroblasts were established by the method of Henry et al. (Diabetes, 44, 936-946, 1995), with minor modifications. Briefly, muscle tissue was dissected in Ham's F-10 media at 4° C., dissociated by three successive treatments with 0.05% trypsin/EDTA, and satellite cells were re-suspended in SkGM with 2% FCS and no added insulin. The cells were grown on culture wells coated with ECM gel (Apmis, 109, 726-734, 2001). At about 80% confluence, fusion of myoblasts into multinucleated myotubes was achieved by growth in DMEM with 2% FCS. All cells used were at passage 4 to 6. […]
Palmitate uptake and lipid distribution. […] The radioactivity in the cell fraction (20 μl) was quantified by liquid scintillation (Packard Tri-Carb 1900 TR) (Gaster et al, Diabetes, 53, 542-548, 2004). The protein content of each sample was determined (Bradford, Anal. Biochem., 72, 248-254, 1976), and triacylglycerol (TAG) was extracted (Gaster et al, supra). Briefly, the homogenized cell fraction (220 μl) was extracted, lipids separated by thin-layer chromatography and the radioactivity was quantified by liquid scintillation.

[3] = test system: LXR target genes; test: Gene expression of LXR target genes in myotubes by Real-Time RT-PCR; type: cell-based, human; details: after 22-S-HC treatment; data not shown
[4] = test system: Myotubes from type II diabetic subjects; test: T0901317 response in myotubes from type II diabetic vs healthy subjects; type: cell-based, human; details: 1 μM; type II diabetic myotubes compared to myotubes from healthy donors
Experimental: FIG. 9. […] T0901317 (1 μM) response of (A) palmitate uptake, distribution into cellular lipids and oxidation and (B) glucose uptake (GT), oxidation (GOX) and glycogen synthesis (GS) in myotubes from healthy donors and donors with type 2 diabetes #p≦0.05 vs control myotubes.

| SMILES | GLUT4 mRNA level, increase [1] [fold] | synthesis of TAG compared to T0901317 treatment ([2]; 10 μM for 4 days vs 1 μM T0901317) | reduction in incorporation of labeled palmitate into TAG ([2]; 10 μM for 4 days, compared to control myotubes) [%] | FAS mRNA expression observed on a micro fluid card [3] | TAG synthesis from labeled palmitate ([2]; 1 μM T0901317 for 4 days, [1-14C]PA 4 h, vs control) | glucose uptake in response to T0901317 [4] | palmitate oxidation to CO2 in response to T0901317 [4] | uptake and incorporation of palmitate into complex lipids in response to T0901317 [4] | mRNA level of glucose transporter 1 (GLUT1) ([1]; treatment for 4 days) |
| --- | --- | --- | --- | --- | --- | --- | --- | --- | --- |
| CC(C)CC[C@@H](O)[C@@H](C)[C@H]1CC[C@H]2[C@@H]3CC=C4C[C@@H](O)CC[C@]4(C)[C@H]3CC[C@]12C [Example 22-R-HC, 22-R-hydroxycholesterol] | 4 |  |  |  |  |  |  |  |  |
| CC(C)CC[C@H](O)[C@@H](C)[C@H]1CC[C@H]2[C@@H]3CC=C4C[C@@H](O)CC[C@]4(C)[C@H]3CC[C@]12C [Example 22-S-HC, 22-S-hydroxycholesterol] |  | significantly reduced | 50 | significantly reduced |  |  |  |  |  |
| O=S(=O)(c1ccccc1)N(CC(F)(F)F)c1ccc(C(O)(C(F)(F)F)C(F)(F)F)cc1 [Example T0901317] | 4 |  |  |  | increased | reduced | absence | elevated | tended to increase |
